Patent US8299048B2, “Hexahydrocyclopentyl[f]indazole sulfonamides and derivatives thereof as selective glucocorticoid receptor modulators” (Merck Sharp & Dohme Corp., priority 2008, dated 2012)

Biological target: T1, human GR (Homo sapiens, UniProt P04150)
T1 sequence (P04150 1-777): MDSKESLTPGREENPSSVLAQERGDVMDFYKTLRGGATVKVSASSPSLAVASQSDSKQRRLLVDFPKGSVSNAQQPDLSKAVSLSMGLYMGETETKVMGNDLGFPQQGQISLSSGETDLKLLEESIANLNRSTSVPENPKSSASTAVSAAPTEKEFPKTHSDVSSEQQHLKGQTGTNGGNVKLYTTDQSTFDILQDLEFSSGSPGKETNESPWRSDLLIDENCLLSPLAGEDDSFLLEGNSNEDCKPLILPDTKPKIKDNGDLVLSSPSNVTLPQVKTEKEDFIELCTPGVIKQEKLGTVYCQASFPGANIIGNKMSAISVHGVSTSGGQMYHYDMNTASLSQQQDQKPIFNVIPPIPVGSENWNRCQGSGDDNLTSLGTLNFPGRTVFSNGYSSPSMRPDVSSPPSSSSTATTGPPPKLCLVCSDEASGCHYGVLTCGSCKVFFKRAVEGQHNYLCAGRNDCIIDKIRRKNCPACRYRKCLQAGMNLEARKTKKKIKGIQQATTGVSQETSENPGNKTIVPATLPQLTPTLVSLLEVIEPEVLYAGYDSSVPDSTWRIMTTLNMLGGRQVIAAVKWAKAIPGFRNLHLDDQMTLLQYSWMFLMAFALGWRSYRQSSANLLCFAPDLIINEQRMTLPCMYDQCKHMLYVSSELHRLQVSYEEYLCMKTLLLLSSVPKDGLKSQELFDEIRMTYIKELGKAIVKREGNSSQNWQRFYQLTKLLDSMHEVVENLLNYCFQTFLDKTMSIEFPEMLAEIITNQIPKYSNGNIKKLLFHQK
Assay: Trans-Activation Modulation of Glucocorticoid Receptor (GRAMMER), MMTV-LUC reporter, agonist mode
Format: cell-based
Set-up: endogenous in cells
Settings: for EC50: inflection point, read-out: Transactivation A549 Cells GRAMMER IP; for Emax: A549, A549 cells, read-out: Transactivation A549 Cells GRAMMER Emax
Summary of the method: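 Readout is luciferase from a modified MMTV LTR promoter after 24 h compound exposure alongside 10 nM dexamethasone (100% activity reference), DMSO ≤1%.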

SMILES	EC50 (A549 cells) [nM]	Transactivation A549 Cells GRAMMER Emax (A549 cells, maximum activity) [%]	Emax (maximum activity) [%]
C[C@]12Cc3cnn(-c4ccc(F)cc4)c3C=C1CC[C@@H]2CN(CCc1ccccn1)S(=O)(=O)Cc1cccnc1 [Example 1, N-{[(4αR,5S)-1-(4-Fluorophenyl)-4α-methyl-1,4,4α,5,6,7-hexahydrocyclopenta[f]indazol-5-yl]methyl}-1-pyridin-3-yl-N-(2-pyridin-2-ylethyl)methanesulfonamide]	351	31.6	
C[C@]12Cc3cnn(-c4ccc(F)cc4)c3C=C1CC[C@@H]2CN(CC1CC1)S(=O)(=O)c1ccccc1F [Example 2, N-(cyclopropylmethyl)-2-fluoro-N-{[(4αR,5S)-1-(4-fluorophenyl)-4α-methyl-1,4,4α,5,6,7-hexahydrocyclopenta[f]indazol-5-yl]methyl}benzenesulfonamide]	218		50.5
C=CCN(C[C@H]1CCC2=Cc3c(cnn3-c3ccc(F)cc3)C[C@@]21C)S(=O)(=O)c1ccccc1F [Example 3, N-allyl-2-fluoro-N-{[(4αR,5S)-1-(4-fluorophenyl)-4α-methyl-1,4,4α,5,6,7-hexahydrocyclopenta[f]indazol-5-yl]methyl}benzenesulfonamide]	368		39.3
C[C@]12Cc3cnn(-c4ccc(F)cc4)c3C=C1CC[C@@H]2CN(CC1CC1)S(=O)(=O)c1ccccc1C(F)(F)F [Example 4, N-(cyclopropylmethyl)-N-{[(4αR,5S)-1-(4-fluorophenyl)-4α-methyl-1,4,4α,5,6,7-hexahydrocyclopenta[f]indazol-5-yl]methyl}-2-(trifluoromethyl)benzenesulfonamide]	294		16.9
C[C@]12Cc3cnn(-c4ccc(F)cc4)c3C=C1CC[C@@H]2CN(CCO)S(=O)(=O)Cc1cccc(C(F)(F)F)c1 [Example 63, N-{[(4αR,5S)-1-(4-fluorophenyl)-4α-methyl-1,4,4α,5,6,7-hexahydrocyclopenta[f]indazol-5-yl]methyl}-N-(2-hydroxyethyl)-1-[3-(trifluoromethyl)phenyl]methanesulfonamide]	1410		2.1
Cc1ccc(S(=O)(=O)N(CCO)C[C@H]2CCC3=Cc4c(cnn4-c4ccc(F)cc4)C[C@@]32C)s1 [Example 64, N-{[(4αR,5S)-1-(4-fluorophenyl)-4α-methyl-1,4,4α,5,6,7-hexahydrocyclopenta[f]indazol-5-yl]methyl}-N-(2-hydroxyethyl)-5-methylthiophene-2-sulfonamide]	622		7.9
Cn1cc(S(=O)(=O)N(CCO)C[C@H]2CCC3=Cc4c(cnn4-c4ccc(F)cc4)C[C@@]32C)c(C(F)(F)F)n1 [Example 65, N-{[(4αR,5S)-1-(4-fluorophenyl)-4α-methyl-1,4,4α,5,6,7-hexahydrocyclopenta[f]indazol-5-yl]methyl}-N-(2-hydroxyethyl)-1-methyl-3-(trifluoromethyl)-1H-pyrazole-4-sulfonamide]	1080		19.6
Cc1cc(S(=O)(=O)N(CCO)C[C@H]2CCC3=Cc4c(cnn4-c4ccc(F)cc4)C[C@@]32C)c(C)o1 [Example 66, N-{[(4αR,5S)-1-(4-fluorophenyl)-4α-methyl-1,4,4α,5,6,7-hexahydrocyclopenta[f]indazol-5-yl]methyl}-N-(2-hydroxyethyl)-2,5-dimethylfuran-3-sulfonamide]	1180		5.3
Cn1nc(C(F)(F)F)cc1-c1ccc(S(=O)(=O)N(CCO)C[C@H]2CCC3=Cc4c(cnn4-c4ccc(F)cc4)C[C@@]32C)s1 [Example 67, N-{[(4αR,5S)-1-(4-fluorophenyl)-4α-methyl-1,4,4α,5,6,7-hexahydrocyclopenta[f]indazol-5-yl]methyl}-N-(2-hydroxyethyl)-5-[1-methyl-3-(trifluoromethyl)-1H-pyrazole-5-yl]thiophene-2-sulfonamide]	450		6.5
